Experimental data taken from US4110327A, “2,3 Diketo-piperazinocarbonylamino alkanoic acids and derivatives” (Toyama Chemical Co., Ltd., priority 1974, dated 1978).
Values after ≈ are worked out from the molar mass of the structure shown.

Experiments:
Format in all cases: cell-based
Proteus vulgaris = experiment: MIC against clinical isolates; settings: clinical isolate, unit assumed
Proteus mirabilis = experiment: MIC against clinical isolates; settings: clinical isolate, unit assumed
Escherichia coli = experiment: MIC against clinical isolates; settings: unit assumed
Proteus rettgeri = experiment: MIC against clinical isolates; settings: clinical isolate, unit assumed
Klebsiella pneumoniae [1] = experiment: MIC against clinical isolates; settings: unit assumed
[2] = tested on: Staphylococcus aureus 209p; experiment: MIC against standard strain, plate method; settings: unit assumed
Method in brief: (§1)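 Minimum inhibitory concentrations were determined on agar plates of heart infusion medium (pH 7.4) inoculated with 10^4 cells per plate.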

Escherichia coli NIHJ = experiment: MIC against standard strain, plate method; settings: unit assumed
Method in brief: as §1

Proteus vulgaris 3027 = experiment: MIC against standard strain, plate method; settings: Proteus vulgaris 3027, standard strain; unit assumed
Method in brief: as §1

Klebsiella pneumoniae [3] = experiment: MIC against standard strain, plate method; settings: unit assumed
Method in brief: as §1

[4] = tested on: Pseudomonas aeruginosa I.F.O.; experiment: MIC against standard strain, plate method; settings: unit assumed
Method in brief: as §1

Proteus morganii = experiment: MIC against clinical isolates; settings: clinical isolate, unit assumed
Pseudomonas aeruginosa = experiment: MIC against clinical isolates; settings: unit assumed
Staphylococcus aureus = experiment: MIC against clinical isolates; settings: unit assumed
Salmonella typhi = experiment: MIC against clinical isolates; settings: unit assumed
Shigella sonnei = experiment: MIC against clinical isolates; settings: clinical isolate JS 11232; unit assumed
Protocol: (§2) The minimum inhibitory concentrations (MIC) was determined by the plate method disclosed in "Chemotherapy" (Japan), Vol. 16, (1968), pages 98 - 99. The culture medium used was a Heart infusion agar (pH 7.4). The number of the cells per plate used in the inoculum as 10^4 (10^6 cells/ml).
(§3) MIC was determined in the same manner as in the preceding paragraph (1).

Shigella flexneri = experiment: MIC against clinical isolates; settings: unit assumed
Protocol: as §2, §3

Salmonella typhi-murium = experiment: MIC against clinical isolates; settings: unit assumed

Structure (SMILES): CC(=O)OCC1=C(C(=O)O)N2C(=O)C(NC(=O)C(NC(=O)N3CCN(C)C(=O)C3=O)c3ccccc3)C2SC1 (single isomer, unassigned) [compound 60]
- MIC (Proteus vulgaris): 1.56 µg/mL (≈ 2.79 µM)
- MIC (Proteus mirabilis): 3.13 µg/mL (≈ 5.59 µM)
- MIC (Escherichia coli; clinical isolate GN 3435): 6.25 µg/mL (≈ 11.2 µM)
- MIC (Escherichia coli; clinical isolate GN 3452): 12.5 µg/mL (≈ 22.3 µM)
- MIC (Escherichia coli; clinical isolate GN 3465): 100 µg/mL (≈ 179 µM)
- MIC (Escherichia coli; clinical isolate GN 3481): 6.25 µg/mL (≈ 11.2 µM)
- MIC (Escherichia coli; clinical isolate GN 3611): > 200 µg/mL
- MIC (Escherichia coli; clinical isolate K-1): 6.25 µg/mL (≈ 11.2 µM)
- MIC (Escherichia coli; clinical isolate K-2): 12.5 µg/mL (≈ 22.3 µM)
- MIC (Escherichia coli; clinical isolate K-3): 200 µg/mL (≈ 357 µM)
- MIC (Escherichia coli; clinical isolate K-4): 25 µg/mL (≈ 44.7 µM)
- MIC (Proteus rettgeri): 6.25 µg/mL (≈ 11.2 µM)
- MIC (Klebsiella pneumoniae [1]; clinical isolate GN 917): 6.25 µg/mL (≈ 11.2 µM)
- MIC (Klebsiella pneumoniae [1]; clinical isolate GN 4081): 25 µg/mL (≈ 44.7 µM)
- MIC (Klebsiella pneumoniae [1]; clinical isolate GN 4117): 25 µg/mL (≈ 44.7 µM)
- MIC [2]: 0.79 µg/mL (≈ 1.41 µM)
- MIC (Escherichia coli NIHJ): < 0.1 µg/mL
- MIC (Proteus vulgaris 3027): 3.13 µg/mL (≈ 5.59 µM)
- MIC (Klebsiella pneumoniae [3]): 3.13 µg/mL (≈ 5.59 µM)
- MIC [4]: 25 µg/mL (≈ 44.7 µM)
- MIC (Proteus morganii): 3.13 µg/mL (≈ 5.59 µM)
- MIC (Pseudomonas aeruginosa; clinical isolate GN 82): 50 µg/mL (≈ 89.4 µM)
- MIC (Pseudomonas aeruginosa; clinical isolate GN 163): 50 µg/mL (≈ 89.4 µM)
- MIC (Pseudomonas aeruginosa; clinical isolate GN 221): 12.5 µg/mL (≈ 22.3 µM)
- MIC (Pseudomonas aeruginosa; clinical isolate GN 244): 50 µg/mL (≈ 89.4 µM)
- MIC (Pseudomonas aeruginosa; clinical isolate GN 376): 50 µg/mL (≈ 89.4 µM)
- MIC (Pseudomonas aeruginosa; clinical isolate GN 383): 50 µg/mL (≈ 89.4 µM)
- MIC (Pseudomonas aeruginosa; clinical isolate GN 1035): 200 µg/mL (≈ 357 µM)
- MIC (Pseudomonas aeruginosa; clinical isolate GN 1091): 50 µg/mL (≈ 89.4 µM)
- MIC (Pseudomonas aeruginosa; clinical isolate GN 2565): 100 µg/mL (≈ 179 µM)
- MIC (Pseudomonas aeruginosa; clinical isolate GN 2987): 50 µg/mL (≈ 89.4 µM)
- MIC (Pseudomonas aeruginosa; clinical isolate S-1): 200 µg/mL (≈ 357 µM)
- MIC (Pseudomonas aeruginosa; clinical isolate S-2): 100 µg/mL (≈ 179 µM)
- MIC (Pseudomonas aeruginosa; clinical isolate S-3): 100 µg/mL (≈ 179 µM)
- MIC (Pseudomonas aeruginosa; clinical isolate S-4): 100 µg/mL (≈ 179 µM)
- MIC (Staphylococcus aureus; clinical isolate F-1): 3.13 µg/mL (≈ 5.59 µM)
- MIC (Staphylococcus aureus; clinical isolate F-2): 0.78 µg/mL (≈ 1.39 µM)
- MIC (Staphylococcus aureus; clinical isolate F-3): 1.56 µg/mL (≈ 2.79 µM)
- MIC (Staphylococcus aureus; clinical isolate F-4): 1.56 µg/mL (≈ 2.79 µM)
- MIC (Staphylococcus aureus; clinical isolate F-5): 50 µg/mL (≈ 89.4 µM)
- MIC (Staphylococcus aureus; clinical isolate MS 8588): 1.56 µg/mL (≈ 2.79 µM)
- MIC (Staphylococcus aureus; clinical isolate MS 8596): 0.78 µg/mL (≈ 1.39 µM)
- MIC (Staphylococcus aureus; clinical isolate MS 8619): 0.78 µg/mL (≈ 1.39 µM)
- MIC (Staphylococcus aureus; clinical isolate MS 8684): 1.56 µg/mL (≈ 2.79 µM)
- MIC (Staphylococcus aureus; clinical isolate MS 8713): 0.78 µg/mL (≈ 1.39 µM)

Structure (SMILES): CCCCCCCCN1CCN(C(=O)N[C@@H](C(=O)N[C@@H]2C(=O)N3[C@@H]2SC(C)(C)[C@@H]3C(=O)O)c2ccccc2)C(=O)C1 [compound 16]
- MIC (Salmonella typhi; clinical isolate SL 819): 3.13 µg/mL (≈ 5.33 µM)
- MIC (Salmonella typhi; clinical isolate SL 2169): 1.57 µg/mL (≈ 2.67 µM)
- MIC (Proteus vulgaris): 0.8 µg/mL (≈ 1.36 µM)
- MIC (Shigella sonnei): 6.25 µg/mL (≈ 10.6 µM)
- MIC (Shigella flexneri; clinical isolate JS 11215): 6.25 µg/mL (≈ 10.6 µM)
- MIC (Shigella flexneri; clinical isolate JS 11839): 0.79 µg/mL (≈ 1.34 µM)
- MIC (Proteus mirabilis): 1.56 µg/mL (≈ 2.65 µM)
- MIC (Escherichia coli; clinical isolate GN 3465): 12.5 µg/mL (≈ 21.3 µM)
- MIC (Escherichia coli; clinical isolate K-3): 50 µg/mL (≈ 85.1 µM)
- MIC (Proteus rettgeri): 6.25 µg/mL (≈ 10.6 µM)
- MIC (Klebsiella pneumoniae [1]; clinical isolate GN 917): 12.5 µg/mL (≈ 21.3 µM)
- MIC (Klebsiella pneumoniae [1]; clinical isolate GN 4081): 25 µg/mL (≈ 42.5 µM)
- MIC (Klebsiella pneumoniae [1]; clinical isolate GN 4117): 25 µg/mL (≈ 42.5 µM)
- MIC (Salmonella typhi-murium; clinical isolate SL 858): 1.57 µg/mL (≈ 2.67 µM)
- MIC (Salmonella typhi-murium; clinical isolate SL 2136): 100 µg/mL (≈ 170 µM)
- MIC [2]: < 1.57 µg/mL
- MIC (Escherichia coli NIHJ): < 1.57 µg/mL
- MIC (Proteus vulgaris 3027): < 1.57 µg/mL
- MIC [4]: 12.5 µg/mL (≈ 21.3 µM)
- MIC (Proteus morganii): 1.56 µg/mL (≈ 2.65 µM)
- MIC (Pseudomonas aeruginosa; clinical isolate GN 82): 6.25 µg/mL (≈ 10.6 µM)
- MIC (Pseudomonas aeruginosa; clinical isolate GN 163): 12.5 µg/mL (≈ 21.3 µM)
- MIC (Pseudomonas aeruginosa; clinical isolate GN 221): 25 µg/mL (≈ 42.5 µM)
- MIC (Pseudomonas aeruginosa; clinical isolate GN 376): 25 µg/mL (≈ 42.5 µM)
- MIC (Pseudomonas aeruginosa; clinical isolate GN 383): 25 µg/mL (≈ 42.5 µM)
- MIC (Pseudomonas aeruginosa; clinical isolate GN 1035): 25 µg/mL (≈ 42.5 µM)
- MIC (Pseudomonas aeruginosa; clinical isolate GN 1091): 12.5 µg/mL (≈ 21.3 µM)
- MIC (Pseudomonas aeruginosa; clinical isolate GN 2565): 12.5 µg/mL (≈ 21.3 µM)
- MIC (Pseudomonas aeruginosa; clinical isolate GN (number not given; Table 5-3)): 12.5 µg/mL (≈ 21.3 µM)
- MIC (Pseudomonas aeruginosa; clinical isolate S-1): 12.5 µg/mL (≈ 21.3 µM)
- MIC (Pseudomonas aeruginosa; clinical isolate S-2): 25 µg/mL (≈ 42.5 µM)
- MIC (Pseudomonas aeruginosa; clinical isolate S-3): 50 µg/mL (≈ 85.1 µM)
- MIC (Pseudomonas aeruginosa; clinical isolate S-4): 25 µg/mL (≈ 42.5 µM)
- MIC (Staphylococcus aureus; clinical isolate F-1): 6.25 µg/mL (≈ 10.6 µM)
- MIC (Staphylococcus aureus; clinical isolate F-2): 0.79 µg/mL (≈ 1.34 µM)
- MIC (Staphylococcus aureus; clinical isolate F-4): 6.25 µg/mL (≈ 10.6 µM)
- MIC (Staphylococcus aureus; clinical isolate F-5): 100 µg/mL (≈ 170 µM)
- MIC (Staphylococcus aureus; clinical isolate MS 8619): < 0.4 µg/mL

Structure (SMILES): Cc1nnc(SCC2=C(C(=O)O)N3C(=O)C(NC(=O)C(NC(=O)N4CCN(C)C(=O)C4=O)c4ccccc4)C3SC2)s1 (single isomer, unassigned) [compound 62]
- MIC (Proteus vulgaris): 3.13 µg/mL (≈ 4.95 µM)
- MIC (Proteus mirabilis): 6.25 µg/mL (≈ 9.89 µM)
- MIC (Escherichia coli; clinical isolate GN 3435): 6.25 µg/mL (≈ 9.89 µM)
- MIC (Escherichia coli; clinical isolate GN 3452): 6.25 µg/mL (≈ 9.89 µM)
- MIC (Escherichia coli; clinical isolate GN 3465): 25 µg/mL (≈ 39.6 µM)
- MIC (Escherichia coli; clinical isolate GN 3481): 6.25 µg/mL (≈ 9.89 µM)
- MIC (Escherichia coli; clinical isolate GN 3611): 200 µg/mL (≈ 317 µM)
- MIC (Escherichia coli; clinical isolate K-1): 6.25 µg/mL (≈ 9.89 µM)
- MIC (Escherichia coli; clinical isolate K-2): 12.5 µg/mL (≈ 19.8 µM)
- MIC (Escherichia coli; clinical isolate K-3): 200 µg/mL (≈ 317 µM)
- MIC (Escherichia coli; clinical isolate K-4): 12.5 µg/mL (≈ 19.8 µM)
- MIC (Proteus rettgeri): 6.25 µg/mL (≈ 9.89 µM)
- MIC (Klebsiella pneumoniae [1]; clinical isolate GN 917): 6.25 µg/mL (≈ 9.89 µM)
- MIC (Klebsiella pneumoniae [1]; clinical isolate GN 4081): 12.5 µg/mL (≈ 19.8 µM)
- MIC (Klebsiella pneumoniae [1]; clinical isolate GN 4117): 25 µg/mL (≈ 39.6 µM)
- MIC [2]: 0.79 µg/mL (≈ 1.25 µM)
- MIC (Escherichia coli NIHJ): < 0.1 µg/mL
- MIC (Proteus vulgaris 3027): 3.13 µg/mL (≈ 4.95 µM)
- MIC (Klebsiella pneumoniae [3]): 1.57 µg/mL (≈ 2.49 µM)
- MIC [4]: 50 µg/mL (≈ 79.1 µM)
- MIC (Proteus morganii): 3.13 µg/mL (≈ 4.95 µM)
- MIC (Pseudomonas aeruginosa; clinical isolate GN 82): 100 µg/mL (≈ 158 µM)
- MIC (Pseudomonas aeruginosa; clinical isolate GN 163): 50 µg/mL (≈ 79.1 µM)
- MIC (Pseudomonas aeruginosa; clinical isolate GN 221): 50 µg/mL (≈ 79.1 µM)
- MIC (Pseudomonas aeruginosa; clinical isolate GN 244): 100 µg/mL (≈ 158 µM)
- MIC (Pseudomonas aeruginosa; clinical isolate GN 376): 100 µg/mL (≈ 158 µM)
- MIC (Pseudomonas aeruginosa; clinical isolate GN 383): 100 µg/mL (≈ 158 µM)
- MIC (Pseudomonas aeruginosa; clinical isolate GN 1035): 200 µg/mL (≈ 317 µM)
- MIC (Pseudomonas aeruginosa; clinical isolate GN 1091): 100 µg/mL (≈ 158 µM)
- MIC (Pseudomonas aeruginosa; clinical isolate GN 2565): 100 µg/mL (≈ 158 µM)
- MIC (Pseudomonas aeruginosa; clinical isolate GN 2987): 50 µg/mL (≈ 79.1 µM)
- MIC (Pseudomonas aeruginosa; clinical isolate S-1): 200 µg/mL (≈ 317 µM)
- MIC (Pseudomonas aeruginosa; clinical isolate S-2): 200 µg/mL (≈ 317 µM)
- MIC (Pseudomonas aeruginosa; clinical isolate S-3): 200 µg/mL (≈ 317 µM)
- MIC (Pseudomonas aeruginosa; clinical isolate S-4): 200 µg/mL (≈ 317 µM)
- MIC (Staphylococcus aureus; clinical isolate F-1): 3.13 µg/mL (≈ 4.95 µM)
- MIC (Staphylococcus aureus; clinical isolate F-2): 0.78 µg/mL (≈ 1.23 µM)
- MIC (Staphylococcus aureus; clinical isolate F-3): 1.56 µg/mL (≈ 2.47 µM)
- MIC (Staphylococcus aureus; clinical isolate F-4): 1.56 µg/mL (≈ 2.47 µM)
- MIC (Staphylococcus aureus; clinical isolate F-5): 12.5 µg/mL (≈ 19.8 µM)
- MIC (Staphylococcus aureus; clinical isolate MS 8588): 1.56 µg/mL (≈ 2.47 µM)
- MIC (Staphylococcus aureus; clinical isolate MS 8596): 0.78 µg/mL (≈ 1.23 µM)
- MIC (Staphylococcus aureus; clinical isolate MS 8619): 0.78 µg/mL (≈ 1.23 µM)
- MIC (Staphylococcus aureus; clinical isolate MS 8684): 1.56 µg/mL (≈ 2.47 µM)
- MIC (Staphylococcus aureus; clinical isolate MS 8713): 1.56 µg/mL (≈ 2.47 µM)
